Measured values as given in article PMC3923778 (PLoS Currents, 2014).
“Also recorded” adds a separate entry of the source.

Columns and labels:
R6/2 hippocampal slices = assay: Electrophysiological evaluation in R6/2 hippocampal slices (MEA, fEPSP); set-up: species or system mouse
Experimental: Electrophysiology was conducted at Neuroservice SARL, France. All animals were group housed under environmentaly enriched conditions and used in accordance with European legislations for animal care. On the day of recording, 7-8 week old R6/2 or wild type littermate (WT) mice were decapitated without anaesthesia followed by rapid brain removal into ice-cold oxygenated buffer (in mM; saccharose, 250, KCl 2, NaH2PO4 1.2, MgCl2 7, CaCl2 0.5, NaHCO3 26, glucose 11). Hippocampal slices (350 μm thickness) were prepared with a MacIlwain tissue-chopper and incubated at room temperature (RT, 18 – 22 °C) and allowed to recover for at least 1 h prior to recording in oxygenated Artificial Cerebro-Spinal Fluid (ACSF) of the following composition: (in mM; NaCl, 126, KCl 3.5, NaH2PO4 1.2, MgCl2 1.3, CaCl2 2, NaHCO3 25, D-glucose 11, pH 7.2). For experiments, individual slices were transferred to a 3-dimensional 60 electrode MEA chip (Ayanda Biosystems, Lausanne, Switzerland) and continuously perfused with oxygenated (95% O2–5% CO2) ACSF at 37 °C at a rate of 3 mlmin^-1, allowing for complete solution exchange within the MEA chamber 20 s following solution switches (MEA chamber volume: ~1 mL).
For stimulation, one MEA electrode underlying the Schaeffer collaterals at the CA3/CA1 interface was chosen visually as the stimulating electrode. The stimulus consisted of a monopolar biphasic current pulse (negative for 60 μs and then positive for 60 μs) applied at a frequency of 0.03 Hz. Recordings of resultant field excitatory postsynaptic potentials (fEPSPs) from electrodes underlying the CA1 region were made using MultiChannel Systems MCS GmbH software (MC Stim, MS Rack) and hardware composed of a 4-channel stimulus generator and a 60-channel amplifier head-stage connected to a 60-channel A/D card (Reutlingen, Germany). […] Paired pulse facilitation (PPF) was then assessed at 40 % of the maximal fEPSP amplitude response (as defined from the I/O curve) by delivering two pulses to the stimulating electrode with decreasing inter-stimulus intervals (ISI of 300 ms, 200 ms, 100 ms, 50 ms, 25 ms). PPF was performed 4 times per slice, and the resultant 4 fEPSP amplitudes at a given ISI were averaged together. […]
For measurement of long term potentiation (LTP), basal fEPSPs were recorded at 0.03 Hz for ten minutes at 40 % of maximal FEPSP amplitude to verify the baseline stability. […] Potentiation of fEPSP amplitude was then monitored for an additional 60 minute period. […]
For each slice, the fEPSP values at each electrode recorded within the CA1 region were averaged to obtain a single fEPSP value per slice per timepoint. […] Data was analysed using Repeat Measure Two-way ANOVA followed by a post hoc Bonferroni test to analyse statistical significance of single data points using Prism 5.0 software. […]

PDE1 = tested on: PDE1; set-up: method as in PMID 9216839, PMID 17697115, PMID 8961086, PMID 7581878; conditions: ref [12], [23], [27], [28], read-out: reported IC50; cited from earlier work
R6/2 mice = assay: Grip Strength; format: in vivo, mouse; set-up: key to Grip Strength: direction of significant change vs Vehicle-treated R6/2 mice: ▲: significant enhancement compared to Vehicle-treated R6/2 mice (One-way ANOVA, Dunnett’s post-hoc); ▼: significant impairment compared to Vehicle-treated R6/2 mice (One-way ANOVA, Dunnett’s post-hoc)
Experimental: Motor function testing including open field and rear climbing tests were commenced at 4 weeks of age and continued at weeks 6, 8 and 12, for grip strength test at age weeks 4 and 12 and for rotarod at age weeks 4, 6 and 8. Compound treatment was started at 4 weeks of age after the baseline behavioral tests.
Grip strength measurement was performed at age weeks 4 and 12. The mice were tested on Monday afternoons. Mice were taken to the experimental room and, one at a time, were placed on the grip-strength apparatus (San Diego Instruments, San Diego, USA) in such a way that the animal grabs a small mesh grip with its forepaws. The entire apparatus is placed on a table top for testing. Animals are lowered to the platform and then slowly pulled away from the handle by the tail until the animal releases the handle. The equipment automatically measures the strength of the animal’s grip in grams. Five scores were recorded per animal in consecutive sequence. Mice were returned to their home cage after testing.
All values are presented as mean ± Standard Error of Mean (SEM), and differences are considered to be statistically significant at the p < 0.05 level. Statistical analysis was performed using StatsDirect statistical software. Differences between group means were analyzed by 1-way-ANOVA followed by Dunnett’s test (comparison to the control (=vehicle treated TG mice) group). The acquisition of the Cued two-choice swim test was analyzed using Fisher’s exact test.

[1] = Age Week 12, 30 mg/kg p.o., BID

## CN1C(=O)c2nc(Cc3ccc(C(F)(F)F)cc3)[nH]c2N2C1=N[C@H]1CCC[C@H]12 [SCH-51866, (+)-cis-5,6a,7,8,9,9a-hexahydro-2-[4-[trifluro-methyl]phenylmethyl]-5-methyl-cylopent[4,5]imidazo [2,1-b]purin-4(3H)one]
R6/2 hippocampal slices; 3 µM, R6/2 slices
  basal synaptic transmission (input/output characteristics): no significant effect; also recorded: did not significantly reduce
  paired pulse facilitation (PPF): restored R6/2 paired-pulse facilitation (PPF) to WT levels; also recorded: significantly restored to WT levels
R6/2 hippocampal slices; 3 µM, R6/2 slices, vs ACSF alone
  long-term potentiation (LTP): did not restore the deficit; also recorded: did not result in an amplitude of LTP significantly different
R6/2 hippocampal slices; concentration sufficient to fully inhibit the PDE1 enzyme
  electrophysiological parameters in hippocampal slices, overall: does not improve
PDE1
  IC50: 0.07 µM
R6/2 mice; 30 mg/kg, 12 weeks of age, vs R6/2 vehicle group
  Grip strength, effect in words: improvement in grip strength; also recorded: positive effect in improving grip strength; also recorded: significantly improved over the R6/2 vehicle group
R6/2 mice; Age Week 4, 10 mg/kg p.o., BID, ANOVA
  Grip Strength: p vs Vehicle-treated R6/2 mice: ANOVA: p=0.612
R6/2 mice; Age Week 4, 30 mg/kg p.o., BID, ANOVA
  Grip Strength: p vs Vehicle-treated R6/2 mice: ANOVA: p=0.612
R6/2 mice; Age Week 12, 10 mg/kg p.o., BID
  Grip Strength: p vs Vehicle-treated R6/2 mice: p=0.860
R6/2 mice; [1]
  Grip Strength: direction of significant change vs Vehicle-treated R6/2 mice: ▲
  Grip Strength: p vs Vehicle-treated R6/2 mice: 0.006
